120 molecules from a melting point compilation (Tetko et al.) can be followed below.

Molecules are shown by their SMILES.

A word on the melting point: it is the temperature, or range, at which the solid turns liquid. `O=C1CCC(=O)N(c2ccc(C(=O)O)cc2)N1` returned a melting point of 248 to 250 °C.

`C#CCNS(=O)(=O)c1cccc(C(=O)O)c1` showed a melting point of 168 to 172 °C.

Consider `COc1ccc2cc(C#N)ccc2c1`, for which the melting point fell in the range of 105 to 107 °C.

As for `O=[N+]([O-])c1cc(Cl)c(S(=O)(=O)Cl)c(Cl)c1`, the melting point lay within 92 to 94 °C.

Consider `O=C(O)CCNC(=O)c1c[nH]c2ccccc12`, for which the melting point was in the range of 157 to 159 °C.

`Nc1nc(C=Cc2ccccc2)cs1` had a melting point of 147 to 149 °C.

`CCOC(=O)c1cnn(-c2ccc(C(F)(F)F)cn2)c1C` came in with a melting point of 88 to 90 °C.

On to `Nc1cnncc1Cl`, for which the melting point was in the range of 79 to 81 °C.

For `Brc1nnc2ccccn12`, the melting point lay in the range of 109 to 111 °C.

`O=C(O)c1cn(Cc2ccccn2)nn1` showed a melting point of 179 to 181 °C.

Turning to `CNC(c1ccc(Cl)cc1)c1ncccn1` (stereo not given), the melting point was in the range of 67 to 69 °C.

With `O=C(O)Cc1csc(-c2ccccc2Cl)n1`, the melting point was 105 to 109 °C.

Turning to `CN1C(=O)CCc2cc(N)ccc21`, the melting point lay in the range of 101 to 103 °C.

In the case of `O=C(O)C=Cc1cn(-c2ccccc2)nc1-c1cc2ccccc2o1`, the melting point lay within 225 to 227 °C.

In turn, `NNC(=O)Cc1cccc(F)c1` came in with a melting point of 106 to 108 °C.

On to `COC(=O)c1ccc(OCc2ccccc2)c(N)c1`, for which the melting point is 96 to 98 °C.

On to `CCNc1ccc(C(=O)O)cc1[N+](=O)[O-]`, for which the melting point was 239 to 241 °C.

In the case of `Cc1cc(C)c(C(=O)CCl)c(C)c1C`, the melting point lay in the range of 61 to 63 °C.

`Cc1cc(N2CCN(C)CC2)ccc1N` yielded a melting point of 100 to 102 °C.

For the molecule `CC(C)c1nccn1Cc1cccc(N)c1`, the melting point was 88 to 90 °C.

`CNCCCc1cc(-c2ccccc2)n[nH]1`: the melting point lay in the range of 98 to 100 °C.

For `CCc1cc(=O)[nH]c(-c2ccccc2)n1`, the melting point fell in the range of 162 to 164 °C.

Consider `COc1ccc([N+](=O)[O-])cc1C(C)N` (stereo not given), for which the melting point fell in the range of 62 to 64 °C.

Molecule `[N-]=[N+]=Nc1ccc(Cl)cc1Cl` came in with a melting point of 52 to 54 °C.

On to `Cc1cc(C(=O)CCl)c(C)n1CCc1ccccc1`, for which the melting point lay in the range of 80 to 82 °C.

`O=C(CCl)Nc1ccc(Br)cc1F` registered a melting point of 133 to 135 °C.

With `CCOC(=O)c1sc(-c2ccc(Cl)cc2)cc1N`, the melting point was 200 to 202 °C.

Molecule `Cc1cc(CC(=O)O)n[nH]1` displayed a melting point of 116 to 118 °C.

For `CCOC(=O)Cc1nnc(S)n1C`, the melting point lay in the range of 135 to 137 °C.

As to `CN(C)S(=O)(=O)c1ccc2[nH]c(=O)c(=O)[nH]c2c1`, the melting point lay in the range of 319 to 321 °C.

As to `NC(=O)c1cccnc1NC1CCN(Cc2ccccc2)CC1`, the melting point lay within 73 to 75 °C.

For `Nc1ncc(CCC(=O)O)s1`, the melting point lay within 195 to 197 °C.

For the molecule `Cc1ccc(CNC(=O)c2ccccc2NC(=O)CCl)cc1`, the melting point was 150 to 152 °C.

As to `Cc1ccccc1CCNC(=O)C(C)Cl` (stereo not given), the melting point was in the range of 59 to 61 °C.

As to `Cc1cccc(NC(S)=C(C#N)c2nc3ccccc3s2)c1C`, the melting point is 94 to 98 °C.

The molecule `Cc1c(CC#N)cccc1[N+](=O)[O-]` came in with a melting point of 79 to 81 °C.

`Cc1ccc(-n2nnc(CC(=O)O)c2C)cc1` showed a melting point of 194 to 196 °C.

`CCn1c(C)c(C(=O)O)c2cc(OC)ccc21`: the melting point lay within 173 to 175 °C.

`O=C(Nc1ccc([N+](=O)[O-])cc1Cl)OCC(F)(F)F` gave a melting point of 132 to 134 °C.

`O=C(O)C1CCN(C(=O)N2CCOCC2)CC1` came in with a melting point of 131 to 133 °C.

Take `O=C(O)/C=C/c1ccc2c(c1)CCO2`: the melting point fell in the range of 175 to 177 °C.

Regarding `OCc1ccc2c(c1)CCC2`, the melting point fell in the range of 69 to 71 °C.

As for `O=C(O)c1cccc(NC(=O)c2cccc(Br)c2)c1`, the melting point was 273 to 275 °C.

With `C=CCN(CC(=O)O)S(=O)(=O)c1ccc(Cl)cc1`, the melting point lay within 136 to 138 °C.

For `Cc1nc(CNc2ccc(F)cc2)cs1`, the melting point is 76 to 78 °C.

The molecule `Nc1n[nH]c(Cc2cccc(F)c2)n1` registered a melting point of 179 to 181 °C.

As to `COc1cccc(CSCC(N)C(=O)O)c1` (stereo not given), the melting point lay within 194 to 196 °C.

Molecule `CCOC(C)c1nc(CC(=O)O)cs1` (stereo not given) returned a melting point of 91 to 93 °C.

In turn, `N#Cc1ccc(CNC(=O)CCl)cc1` yielded a melting point of 142 to 144 °C.

Take `NN1CCCC1=O`: the melting point was in the range of 47 to 49 °C.

Consider `O=C(CCCl)Nc1ccc2[nH]c(=O)[nH]c2c1`, for which the melting point lay in the range of 299 to 301 °C.

The molecule `COc1cc(C=O)cc(Cl)c1OC(C)C` displayed a melting point of 34 to 36 °C.

Take `Sc1nnnn1Cc1ccco1`: the melting point fell in the range of 78 to 80 °C.

As for `O=C(O)CSc1nc(-c2ccccc2)no1`, the melting point was in the range of 115 to 117 °C.

On to `CN(C)c1ccnc(Cl)n1`, for which the melting point fell in the range of 79 to 81 °C.

In turn, `O=C(O)C1CCCN(C(=O)Cc2ccccc2)C1` (stereo not given) gave a melting point of 112 to 114 °C.

Take `Nc1cccc(S(=O)(=O)Nc2nccs2)c1`: the melting point fell in the range of 170 to 172 °C.

`O=Cc1cn(-c2cccc(Cl)c2Cl)nn1` yielded a melting point of 139 to 141 °C.

In the case of `CC(C)c1ccc(-n2ccnc2S)cc1`, the melting point was 131 to 135 °C.

`Cc1cccc(Oc2ccc(N)cn2)c1C` returned a melting point of 68 to 70 °C.

For the molecule `N#CCc1cc(Br)cnc1O`, the melting point lay within 209 to 211 °C.

In the case of `Cc1cc(-c2ccccc2)nc2cc(O)nn12`, the melting point lay within 231 to 233 °C.

In turn, `CC(=O)NCc1ccc(C(=O)CCl)cc1` registered a melting point of 139 to 141 °C.

In the case of `Cc1c(N)cccc1N1C(=O)CCC1=O`, the melting point was 182 to 184 °C.

As for `Nc1cccc(-c2nc(C3CC3)n[nH]2)c1`, the melting point fell in the range of 154 to 156 °C.

`Cc1c(C(=O)O)cnn1CCC#N` had a melting point of 159 to 161 °C.

Consider `Cc1ccc(CO)cc1N`, for which the melting point lay within 108 to 110 °C.

Turning to `Fc1ccc(-c2csc3nc(Cc4ccc(Cl)cc4)nc(Cl)c23)cc1`, the melting point lay within 148 to 150 °C.

The molecule `N#Cc1ccccc1Oc1ccc(N)cc1F` yielded a melting point of 119 to 121 °C.

`Cc1ccc(CC(=O)Cc2ccc(C)cc2)cc1` gave a melting point of 53 to 55 °C.

As to `O=C(O)CNC(=O)c1ccccc1OC(F)F`, the melting point lay within 66 to 68 °C.

The molecule `CC(=O)Nc1cc(NC(C)=O)cc(C(=O)O)c1` came in with a melting point of 187 to 189 °C.

`CS(=O)(=O)c1cccc(C(=O)c2ccccc2)c1` yielded a melting point of 86 to 88 °C.

With `Nc1ccnn1C1CCCCC1`, the melting point is 80 to 82 °C.

With `Cc1nc[nH]n1`, the melting point was in the range of 89 to 91 °C.

As for `CC(Cl)C(=O)NCC(F)(F)F` (stereo not given), the melting point was 42 to 44 °C.

`COc1ccc(C(=O)c2ccc(C)cc2)cc1` returned a melting point of 88 to 90 °C.

Take `O=C(CCl)N1CCN(S(=O)(=O)c2ccc(Cl)s2)CC1`: the melting point is 240 to 245 °C.

`BrCc1cccc2ccccc12` yielded a melting point of 49 to 51 °C.

Turning to `O=C(CN1CCNCC1)Nc1cccc(F)c1`, the melting point lay within 68 to 70 °C.

The molecule `NCC1(O)CCS(=O)(=O)CC1` yielded a melting point of 175 to 177 °C.

`Nc1cc(Cl)ccc1-n1cnnn1`: the melting point was 130 to 132 °C.

`O=C(O)CCn1ncc2ccc([N+](=O)[O-])cc21` gave a melting point of 151 to 153 °C.

With `CC(C)C(NC(=O)c1ccc([N+](=O)[O-])cc1Cl)C(=O)O` (stereo not given), the melting point is 145 to 147 °C.

On to `COc1c(Br)cc(Cl)cc1S(=O)(=O)Cl`, for which the melting point was 68 to 70 °C.

Molecule `Cc1nn(C)c(C)c1C(=O)NC1(C(=O)O)CCCC1` showed a melting point of 235 to 237 °C.

`Cn1cc(CCC(=O)O)c2ccccc21` yielded a melting point of 123 to 125 °C.

In turn, `Cc1nc2nccc(C(=O)O)n2n1` gave a melting point of 226 to 228 °C.

`COc1ccc(NC(=O)C(C)Cl)cc1` (stereo not given) registered a melting point of 133 to 135 °C.

Turning to `Cc1ccc(CNC(N)=O)cc1`, the melting point is 184 to 186 °C.

Regarding `NC(=O)C(Cl)c1ccc(Br)cc1F` (stereo not given), the melting point lay in the range of 101 to 103 °C.

The molecule `N#Cc1ccc(CS(=O)(=O)NN)cc1` gave a melting point of 142 to 144 °C.

For `Cn1c(S)nnc1-c1ccncc1`, the melting point was in the range of 121 to 123 °C.

Turning to `CC1CCCC(NC(=O)NC(=O)CCl)C1C` (stereo not given), the melting point is 131 to 133 °C.

Molecule `c1ccc(CC2CCN(c3ncnc4sccc34)CC2)cc1` yielded a melting point of 124 to 126 °C.

`CCNC(=O)CC(=O)O` registered a melting point of 51 to 53 °C.

The molecule `CC(C)Oc1ccc(CCCO)cc1` gave a melting point of 31 to 33 °C.

`Cc1nnc(-c2ccc(C(=O)O)cc2)[nH]1` showed a melting point of 272 to 274 °C.

`COc1cc(Br)cc(OC)c1O` registered a melting point of 99 to 101 °C.

On to `NCC1(O)CCC1`, for which the melting point is 64 to 66 °C.

For `CC(C)Oc1ccc(C(=O)O)cc1N`, the melting point fell in the range of 115 to 117 °C.

`c1cc(-c2nc3cc4c(cc3[nH]2)OCCO4)cs1` had a melting point of 279 to 281 °C.

For the molecule `CC(C)(C)OC(=O)N(CC(=O)O)C1CC1`, the melting point is 90 to 92 °C.

`COC(=O)c1cc(N)cc([N+](=O)[O-])c1` registered a melting point of 159 to 161 °C.

`N#CC(N)c1ccc2ccccc2c1` (stereo not given): the melting point fell in the range of 116 to 118 °C.

Turning to `COc1cc(F)c(S(=O)(=O)Cl)c(F)c1`, the melting point was in the range of 53 to 55 °C.

As to `COc1ccc(NS(=O)(=O)c2cc(C(=O)O)ccc2F)cc1`, the melting point lay within 209 to 211 °C.

For `COc1ccc(-n2ccnc2SCC(=O)O)cc1`, the melting point was 125 to 127 °C.

`N#CCC(=O)Nc1ccncc1` showed a melting point of 181 to 183 °C.

Regarding `N#CCc1c(C#N)c(N)nc(N2CCCCC2)c1C#N`, the melting point fell in the range of 142 to 144 °C.

In the case of `OC(c1cnn(-c2ccccc2)c1)C(F)(F)F` (stereo not given), the melting point lay within 77 to 79 °C.

`COc1ccc(Cl)cc1-n1cc(S(=O)(=O)Cl)cn1`: the melting point lay in the range of 89 to 91 °C.

`COc1cc(C(=O)O)cc(Cl)c1OC(C)C`: the melting point lay in the range of 156 to 158 °C.

On to `COC(=O)c1ccc(-c2nc(CCl)cs2)cc1`, for which the melting point was 108 to 110 °C.

Molecule `Nc1nccc(C(F)(F)F)n1` came in with a melting point of 174 to 178 °C.

For `O=S1(=O)CCCN1c1cccc(Br)c1`, the melting point was 74 to 76 °C.

Molecule `Cc1cc(Oc2ccccc2)c2cc([N+](=O)[O-])ccc2n1` registered a melting point of 167 to 169 °C.

Molecule `Fc1ccccc1Cc1nnc(S)o1` showed a melting point of 134 to 136 °C.

Molecule `CCN(CC)S(=O)(=O)c1ccc(Cl)nc1` came in with a melting point of 82 to 84 °C.

For the molecule `CCOC(=O)Cc1nc2cc(C)c(C)cc2[nH]1`, the melting point lay within 169 to 171 °C.
